# Test results as given in patent US11518750B2, “3-methylideneoxan-4-one compounds and substituted derivatives thereof as inhibitors of telomerase” (NORTHWESTERN UNIVERSITY, priority 2019, dated 2022).
# Experiments:
# [1] = biological target: T1, telomerase in MCF7 cells in culture (Homo sapiens, UniProt O14746); assay: TRAP assay in cultured cells; format: cell-based; conditions: TRAP assay, MCF7 cells in culture
# T1 construct: endogenous in cells; host or cells: MCF-7
# Description: Telomeric Repeat Amplification Protocol Assay. The telomeric repeat amplification protocol (TRAP) assay was performed using the TRAPeze RT Telomerase Detection Kit (EMD Millipore) and iTaq DNA polymerase (Bio-Rad) according to the manufacturer's protocol.
# Cultured Cells TRAP Analysis. MCF-7, HeLa, ACHN, MDA-MB231 and A549 cells were cultured in DMEM media supplemented with 10% Fetal Bovine Serum (FBS), 1% pen/strep and with 5% CO2 and 37° C. Cells were plated in 96 well plates and allowed to attach for 24 h. Media was removed, and fresh media containing various concentrations of compound was added, and the plate was incubated for 24 h. […] The cell extract was then centrifuged at 12,000×g for 20 min at 4° C. to remove cell debris. Note: “fresh” media constitutes media supplemented with 10% Fetal Bovine Serum (FBS) and 1% pen/strep that has not been previously used for cell culture (e.g., not conditioned media). TRAP analysis was conducted as above.
# [2] = biological target: T2, Human telomerase purified from telomerase-overexpressing HEK293T cells (Homo sapiens, UniProt O14746); assay: Direct (non-PCR) primer extension telomerase activity assay, purified telomerase; format: biochemical; conditions: purified telomerase
# T2 construct: made in house; host or cells: HEK293T (telomerase-overexpressing)
# Description: Primer-Extension Telomerase Activity Assays. […] ID NO: 1) (2 μM)].
# [3] = system: MCF7 cells; assay: Cell viability (CellTiter-Glo), telomerase-positive cells; format: cell-based, human; conditions: Homo sapiens, read-out: IC50, loss of viability
# Description: Cell Viability Measurements. MCF-7, HeLa, MDA-MB231 and A549 cells were cultured in DMEM media supplemented with 10% Fetal Bovine Serum (FBS), 1% pen/strep and with 5% CO2 and 37° C. Cells were plated in 96 well plates and allowed to attach for 24 h. Media was removed, and fresh media containing various concentrations of compound was added, and the plate was incubated for 24 h. The plate was removed from the incubator and allowed to equilibrate to room temperature for 30 min. 50 μl of freshly prepared CellTiter-Glo (Promega) reagent was added, and the plate was mixed on an orbital shaker for 10 min to induce cell lysis and stabilize luminescent signal. The luminescence was recorded on a PerkinElmer Enspire multimode plate reader.
# [4] = system: Saos-2; assay: Cell viability, telomerase-negative cells; format: cell-based; conditions: Saos-2, up to 100 μM
# [5] = system: VA-13; assay: Cell viability, telomerase-negative cells; format: cell-based; conditions: VA-13, up to 100 μM
# [6] = system: N-acetyl cysteine (NAC); assay: physchem; format: physicochemical; conditions: pH 7.4
# Description: N-Acetyl Cysteine, N-Acetyl Lysine and N-Acetyl Serine Kinetic Studies. Assay was conducted as described with minor modifications.^81-84 Briefly, a 1 mM stock solution of NU-1 with internal standard (phenacetin) in DMSO was added to a 50 mM solution of either N-acetyl cysteine, N-acetyl lysine or N-acetyl serine in 67 mM phosphate buffer (pH 7.4), as well as added to a solution of 67 mM phosphate buffer (pH 7.4) control. Samples were taken every 2 min for 2 h and quenched immediately with MeOH and centrifuged upon sampling. Samples were placed on a Waters Acquity UPLC-MS system and measured for the ratio of NU-1 to internal standard intensity to calculate the amount of NU-1 present at each time point relative to the amount of NU-1 at the first injection of the compound in buffer. Assay was conducted in triplicate.
# [7] = biological target: T3, telomerase in MCF7 cells (Homo sapiens, UniProt O14746); assay: Compound washout TRAP analysis; format: cell-based
# T3 construct: endogenous in cells; host or cells: MCF-7
# Description: Compound Washout TRAP analysis. MCF-7 cells were plated in 96 well plates and allowed to attach for 24 h. Media was removed, and fresh media containing various concentrations of compound was added, and the plate was incubated for 24 h. Media was removed, cells were washed 2 times with PBS, and fresh media without compound was added. Cells were incubated at 37° C. for an additional “X” hours. […] The cell extract was then centrifuged at 12,000 g for 20 min at 4° C. to remove cell debris. Note: “fresh” media constitutes media supplemented with 10% Fetal Bovine Serum (FBS) and 1% pen/strep that has not been previously used for cell culture (e.g., not conditioned media”). TRAP analysis was conducted as above.
# [8] = system: MCF-7 proteome; assay: Competitive gel imaging with 5-iodoacetamido-fluorescein (competitive ABPP); format: binding, human; conditions: 10 nM to 100 μM, 1 hr, then fluorescein-iodoacetamide 10 μM
# Description: Competitive Gel Image Analysis. MCF-7 cells were cultured in DMEM media supplemented with 10% Fetal Bovine Serum (FBS), 1% pen/strep and with 5% CO2 and 37° C. Cells were plated cultured for 3 days. Flasks were rinsed twice with PBS and treated with 0.05% trypsin-EDTA (Thermo Fisher) to detach cells. The cell suspension was washed twice in PBS and the cell pellet was resuspended in 200 μl of M-PER extraction reagent (Thermo Fisher)/10^6 cells, and incubated for 30 min. Cell extracts were transferred to microcentrifuge tubes, 200 μl/tube, and centrifuged at 12,000×g for 20 min to remove cell debris. The corresponding lysate was then further diluted to a total protein concentration of 2 mg/mL as measured by Nanodrop (Thermo Fisher). 48 μL of MCF-7 lysate was added to twelve microcentrifuge tubes (six per compound), followed by treatment of cell lysate with 1 μL solution of NU-1/chrolactomycin (equating to doses ranging from 10 nM to 100 μM). The samples were incubated for 1 hr, followed by addition of 1 μl of 5-iodoacetamido-fluorescein to a final concentration of 10 μM. The samples were again incubated for 1 hr, followed by quenching the reaction with 15 μL NuPAGE LDS Sample Buffer (4×). […]
# [9] = Plasma stability assay; format: in vitro ADME; conditions: in words
# [10] = Lipophilicity; format: physicochemical; conditions: in words
# T2 sequence (O14746 whole entry): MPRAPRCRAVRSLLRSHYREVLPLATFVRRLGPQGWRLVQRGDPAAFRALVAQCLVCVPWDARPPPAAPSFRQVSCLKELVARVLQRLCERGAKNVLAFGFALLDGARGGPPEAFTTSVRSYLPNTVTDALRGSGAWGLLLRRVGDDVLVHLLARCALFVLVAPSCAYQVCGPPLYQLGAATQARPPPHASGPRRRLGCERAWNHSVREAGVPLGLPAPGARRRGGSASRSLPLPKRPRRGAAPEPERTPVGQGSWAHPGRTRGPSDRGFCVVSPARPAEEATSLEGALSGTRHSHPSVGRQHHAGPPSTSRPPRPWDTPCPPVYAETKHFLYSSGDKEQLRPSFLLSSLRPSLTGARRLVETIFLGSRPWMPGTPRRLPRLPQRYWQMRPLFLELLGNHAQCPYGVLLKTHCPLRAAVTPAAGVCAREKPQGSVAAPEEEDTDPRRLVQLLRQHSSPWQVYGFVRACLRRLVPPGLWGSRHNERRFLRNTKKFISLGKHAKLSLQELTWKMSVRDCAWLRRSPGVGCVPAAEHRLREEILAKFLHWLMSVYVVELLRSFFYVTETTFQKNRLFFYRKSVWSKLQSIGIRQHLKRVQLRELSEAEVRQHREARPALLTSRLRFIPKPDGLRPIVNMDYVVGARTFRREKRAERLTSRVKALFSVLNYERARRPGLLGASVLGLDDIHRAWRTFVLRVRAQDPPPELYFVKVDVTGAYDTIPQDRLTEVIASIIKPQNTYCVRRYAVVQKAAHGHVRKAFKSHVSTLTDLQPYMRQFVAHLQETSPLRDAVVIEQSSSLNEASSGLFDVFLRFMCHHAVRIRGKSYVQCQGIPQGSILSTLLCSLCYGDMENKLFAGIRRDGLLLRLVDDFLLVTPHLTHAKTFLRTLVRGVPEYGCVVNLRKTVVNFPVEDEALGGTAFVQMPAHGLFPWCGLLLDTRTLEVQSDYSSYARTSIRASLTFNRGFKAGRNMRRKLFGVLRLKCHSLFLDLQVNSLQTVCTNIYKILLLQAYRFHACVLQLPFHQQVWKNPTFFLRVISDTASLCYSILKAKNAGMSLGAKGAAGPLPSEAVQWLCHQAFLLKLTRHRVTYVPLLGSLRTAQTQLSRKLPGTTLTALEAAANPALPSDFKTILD
# T2 sequence (O60832 whole entry partner): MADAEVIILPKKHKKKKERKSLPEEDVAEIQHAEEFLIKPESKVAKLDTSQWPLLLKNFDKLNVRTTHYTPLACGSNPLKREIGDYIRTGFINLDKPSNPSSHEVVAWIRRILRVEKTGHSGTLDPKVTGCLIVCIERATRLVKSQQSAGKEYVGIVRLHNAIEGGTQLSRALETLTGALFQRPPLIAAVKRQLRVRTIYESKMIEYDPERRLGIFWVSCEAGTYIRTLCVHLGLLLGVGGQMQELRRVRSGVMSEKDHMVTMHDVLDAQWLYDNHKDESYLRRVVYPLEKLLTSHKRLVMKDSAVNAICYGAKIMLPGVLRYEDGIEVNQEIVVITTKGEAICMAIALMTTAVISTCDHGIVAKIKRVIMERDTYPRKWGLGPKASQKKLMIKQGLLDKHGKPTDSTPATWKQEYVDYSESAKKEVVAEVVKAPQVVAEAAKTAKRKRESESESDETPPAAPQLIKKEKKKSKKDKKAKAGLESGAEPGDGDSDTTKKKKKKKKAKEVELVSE
# T2 sequence (Q9NPE3 whole entry partner): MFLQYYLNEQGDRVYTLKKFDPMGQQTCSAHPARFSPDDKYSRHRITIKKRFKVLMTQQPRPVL
# T2 sequence (Q9NX24 whole entry partner): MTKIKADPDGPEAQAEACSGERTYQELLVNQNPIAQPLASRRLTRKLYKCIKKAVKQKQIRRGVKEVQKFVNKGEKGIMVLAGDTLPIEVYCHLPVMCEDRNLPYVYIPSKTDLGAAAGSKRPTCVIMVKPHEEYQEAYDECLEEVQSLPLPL
# T2 sequence (Q9NY12 whole entry partner): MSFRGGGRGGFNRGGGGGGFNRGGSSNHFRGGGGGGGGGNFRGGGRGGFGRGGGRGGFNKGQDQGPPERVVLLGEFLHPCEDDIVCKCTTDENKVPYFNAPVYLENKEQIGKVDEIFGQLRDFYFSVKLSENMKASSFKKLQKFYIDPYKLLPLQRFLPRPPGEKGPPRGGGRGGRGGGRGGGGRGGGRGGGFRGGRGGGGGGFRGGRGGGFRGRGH
# T3 sequence (O14746 whole entry): as the sequence (O14746 whole entry) above
# T3 sequence (O60832 whole entry partner): as the sequence (O60832 whole entry partner) above
# T3 sequence (Q9NPE3 whole entry partner): as the sequence (Q9NPE3 whole entry partner) above
# T3 sequence (Q9NX24 whole entry partner): as the sequence (Q9NX24 whole entry partner) above
# T3 sequence (Q9NY12 whole entry partner): as the sequence (Q9NY12 whole entry partner) above
# T3 sequence (Q9BUR4 whole entry partner): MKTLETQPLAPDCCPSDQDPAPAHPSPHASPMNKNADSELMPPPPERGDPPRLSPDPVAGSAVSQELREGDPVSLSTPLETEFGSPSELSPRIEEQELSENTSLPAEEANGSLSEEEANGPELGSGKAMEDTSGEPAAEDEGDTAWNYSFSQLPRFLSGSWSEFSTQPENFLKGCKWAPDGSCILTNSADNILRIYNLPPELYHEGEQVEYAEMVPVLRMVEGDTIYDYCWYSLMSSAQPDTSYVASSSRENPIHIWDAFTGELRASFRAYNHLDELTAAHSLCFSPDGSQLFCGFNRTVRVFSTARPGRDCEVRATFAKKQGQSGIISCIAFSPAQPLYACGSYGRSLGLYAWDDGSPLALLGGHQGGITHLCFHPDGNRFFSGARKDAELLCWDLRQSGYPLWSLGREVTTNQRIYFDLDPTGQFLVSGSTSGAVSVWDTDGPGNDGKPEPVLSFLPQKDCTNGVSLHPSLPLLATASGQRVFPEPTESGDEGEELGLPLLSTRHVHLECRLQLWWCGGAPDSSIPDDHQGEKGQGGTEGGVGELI
# T1 sequence (O14746 whole entry): as the sequence (O14746 whole entry) above
# T1 sequence (O60832 whole entry partner): as the sequence (O60832 whole entry partner) above
# T1 sequence (Q9NPE3 whole entry partner): as the sequence (Q9NPE3 whole entry partner) above
# T1 sequence (Q9NX24 whole entry partner): as the sequence (Q9NX24 whole entry partner) above
# T1 sequence (Q9NY12 whole entry partner): as the sequence (Q9NY12 whole entry partner) above
# T1 sequence (Q9BUR4 whole entry partner): as the sequence (Q9BUR4 whole entry partner) above
structure (smiles),measurement,setting,value
"C=C1C(=O)[C@](C)(C(=O)OC)[C@H](CCc2cn(Cc3ccc(F)cc3F)nn2)O[C@@H]1C [NU-1, methyl (2S,3R,6R)-2-(2-(1-(2,4-difluorobenzyl)-1H-1,2,3-triazol-4-yl)ethyl)-3,6-dimethyl-5 methylene-4-oxotetrahydro-2H-pyran-3-carboxylate]",IC50,[1],0.27 µM
same,time to complete inhibition,[2]; 100 μM,~6 h
same,inhibition of telomere repeat synthesis,[2]; in words,low-micromolar range
same,IC50,[3],27 µM
same,effect on viability,[4],did not affect viability
same,effect on viability,[5],did not affect viability
same,half-life at 1 μM,[6],42 min
same,telomerase activity after washout,"[7]; MCF7 cells washed, 4 h recovery",remained blocked
same,telomerase activity after washout,"[7]; washed, fresh media, 24 h",did not restore
same,off-target protein labeling (loss of protein banding),[8],minimal loss of protein banding and streaking
same,plasma stability,[9],satisfactory performance
same,lipophilicity,[10],favorable
